Assay results reported in ChEMBL document CHEMBL1130538, “Catalytic mechanism of KDO8P synthase: synthesis and evaluation of a putative reaction intermediate” (Bioorg Med Chem Lett, 1997).

Assays:
[1] = Half-life was determined at pD 7.0 and 25 degree Centigrade; type: ADME; details: pH 7
[2] = The inhibitory activity against KDO 8-P synthase was determined; parameters: species or system Escherichia coli
[3] = Half-life was determined at pD 7.0 and 37 degree Centigrade; type: ADME; details: pH 7

Compound O=C(O)C1(OP(=O)(O)O)CC(O)C(O)C([C@H](O)COP(=O)(O)O)O1 (stereo partly drawn) has a half-life [1] of 4.7 h, a Ki [2] of 35 µM and a half-life [3] of 2.5 h.
